In brackets after ≈: the same amount, converted by molar mass.
Assays:
physchem = conditions: for solubility: 25 °C, pH 7, water
Description: High solubility of naturally occurring positively charged amino acids are subject to runoff, which may be problematic. However, positively charged amino acids are better retained than negatively charged nitrate, sulfate, and phosphate which are poorly retained in the negatively charged soils.

[1] = Column retention of amino acid on WS A201; assay type: physicochemical; conditions: for amount complexed and retained by the WS A 201 / amount passed through the column: 100 ml solution on 89 ml WS A201 column at 1.5 ml/min, displaced with 100 ml deionized water; for converted to cationic charge: from WS A201 column retention
Protocol: The modified alanine solution was added to 100 ml burette with 9 mm diameter at the rate of 1.5 ml/min. The column was filled with 89 ml of WS A201 (WaterScience, Inc., Peoria, Ill.) which has an anion exchange capacity of 2 EG Kg. To the burette was added 100 ml deionized water to displace the modified alanine. […] The 100 ml of deionized water containing 890.9 mg of unmodified alanine was added to another column containing fresh WS A 201. To the burette was also added 100 ml of deionized water to displace the unmodified alanine solution from the column.
The column was filled with 89 ml of WS A 201 which has an anion exchange capacity of 2 EG Kg. […] The 100 ml of deionized water containing 1471 mg of unmodified glutamic acid was added to another column containing fresh WS A 201. To the burette column was also added 100 ml of deionized water to displace the unmodified glutamic acid solution from the column.
The 1% modified leucine acid solution was added to 100 ml burette with 9 mm diameter at the rate of 1.5 ml/min. The column was filled with 89 ml of WS A 201 which has an anion exchange capacity of 2 EG Kg. To the burette was added 100 ml deionized water to displace the modified leucine. […] The 100 ml of deionized water containing 1312 mg of unmodified leucine was added to another column containing fresh WS A 201. To the burette was also added 100 ml of deionized water to displace the unmodified leucine solution from the column.

[2] = Electro-potential of amino acid in deionized water against a hydrogen electrode; assay type: physicochemical; conditions: amino acid in 100 ml deionized water, electro-potential meter against hydrogen electrode
Protocol: After drying, 890.9 mg of the modified alanine (i.e., protonated alanine) was added to 100 ml of deionized water to form a modified alanine solution. The electro-potential of the modified alanine water mixture was measured with an electro-potential meter against a hydrogen electrode. […] 890.9 mg sample of unmodified alanine was added to 100 ml of deionized water.
890.9 mg sample of unmodified glutamic acid was added to 100 ml of deionized water.
After drying, 1902 mg of the modified leucine was added to 100 ml of deionized water to form a modified leucine solution. The electro-potential of the modified leucine water mixture was measured with an electro-potential meter against a Hydrogen electrode. […] 1312 mg sample of unmodified leucine was added to 100 ml of deionized water.

With `N[C@@H](Cc1c[nH]cn1)C(=O)O` [histidine] the solubility (physchem) was 41.9 mg/mL (≈ 270 mM).

With `NCCCC[C@H](N)C(=O)O` [lysine] the solubility (physchem) was 1000 mg/mL (≈ 6840 mM) and the “reduction of solubility by modification with a weak base to pH 10” value (physchem; pH 10) was 89%.

With `C[C@H](N)C(=O)O` [modified alanine, Protonated alanine] the “amount complexed and retained by the WS A 201” value (“amount complexed and retained” below) [1] was 845.8 mg, the “amount passed through the column” value [1] was 45.1 mg and the “converted to cationic charge” value [1] was 94.9%. The electro-potential [2] was 177 mV.

With `CC(CNC(=N)N)C[C@H](N)C(=O)O` (some centres unmarked) [modified leucine, Guanidine modified leucine] the “amount complexed and retained” value [1] was 1246 mg, the “amount passed through the column” value [1] was 66 mg and the “converted to cationic charge” value [1] was 95%. The electro-potential [2] was 197 mV.

With `C[C@H](N)C(=O)O` [unmodified alanine, alanine, reference compound] the “amount complexed and retained” value [1] was 37.3 mg and the “amount passed through the column” value [1] was 853.6 mg.

In the case of `N[C@@H](CCC(=O)O)C(=O)O` [unmodified glutamic acid, glutamic acid, reference compound], the “amount complexed and retained” value [1] is reported as 79 mg and the “amount passed through the column” value [1] is reported as 1392 mg.

For `CC(C)C[C@H](N)C(=O)O` [unmodified leucine, leucine, reference compound], the “amount complexed and retained” value [1] was 41 mg and the “amount passed through the column” value [1] was 1271 mg.

Reference: patent publication US20180148390A1, “METHOD AND COMPOSITION FOR RETAINING NUTRIENTS IN SOIL AT PLANTING SITES” (WaterScience, Inc., priority 2016, published 2018)
